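A five-concentration, 48-hour dose response in 96-well plates underlies each endpoint, interpolated linearly between surrounding concentrations. GI50 = concentration required for 50% inhibition of growth. Definition used: TGI = concentration required for complete inhibition of growth.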
Assays:
Experiment in all cases: DTP human tumour cell line panel, 48 h
SNB-75 CNS = tested on: SNB-75 CNS
UACC-62 melanoma = tested on: UACC-62 melanoma
KM12 colon = tested on: KM12 colon
HT29 colon = tested on: HT29 colon
SK-OV-3 ovarian = tested on: SK-OV-3 ovarian
KM20L2 colon = tested on: KM20L2 colon
OVCAR-8 ovarian = tested on: OVCAR-8 ovarian
NCI-H460 lung = tested on: NCI-H460 lung
K-562 leukemia = tested on: K-562 leukemia
ACHN renal = tested on: ACHN renal
UACC-257 melanoma = tested on: UACC-257 melanoma
COLO 205 colon = tested on: COLO 205 colon
M19-MEL melanoma = tested on: M19-MEL melanoma
HCC-2998 colon = tested on: HCC-2998 colon
CAKI-1 renal = tested on: CAKI-1 renal
RPMI-8226 leukemia = tested on: RPMI-8226 leukemia
SF-295 CNS = tested on: SF-295 CNS
HOP-62 NSCLC = tested on: HOP-62 NSCLC
OVCAR-4 ovarian = tested on: OVCAR-4 ovarian
NCI-H226 lung = tested on: NCI-H226 lung
SN12C renal = tested on: SN12C renal
U251 CNS = tested on: U251 CNS
SK-MEL-28 melanoma = tested on: SK-MEL-28 melanoma
DMS 273 small cell lung = tested on: DMS 273 small cell lung
LXFL 529 NSCLC = tested on: LXFL 529 NSCLC
NCI-H522 lung = tested on: NCI-H522 lung
MOLT-4 leukemia = tested on: MOLT-4 leukemia
UO-31 renal = tested on: UO-31 renal
SF-268 CNS = tested on: SF-268 CNS
EKVX NSCLC = tested on: EKVX NSCLC
SK-MEL-5 melanoma = tested on: SK-MEL-5 melanoma
NCI-H23 lung = tested on: NCI-H23 lung
TK-10 renal = tested on: TK-10 renal
OVCAR-3 ovarian = tested on: OVCAR-3 ovarian
MALME-3M melanoma = tested on: MALME-3M melanoma
HOP-92 NSCLC = tested on: HOP-92 NSCLC
DMS 114 small cell lung = tested on: DMS 114 small cell lung
CCRF-CEM leukemia = tested on: CCRF-CEM leukemia
SK-MEL-2 melanoma = tested on: SK-MEL-2 melanoma
M14 melanoma = tested on: M14 melanoma
SW-620 colon = tested on: SW-620 colon
A498 renal = tested on: A498 renal
SNB-19 CNS = tested on: SNB-19 CNS
IGROV1 ovarian = tested on: IGROV1 ovarian
HCT-116 colon = tested on: HCT-116 colon
A549 NSCLC = tested on: A549 NSCLC
DLD-1 colon = tested on: DLD-1 colon
SF-539 CNS = tested on: SF-539 CNS
LOX IMVI melanoma = tested on: LOX IMVI melanoma
HCT-15 colon = tested on: HCT-15 colon
RXF 393 renal = tested on: RXF 393 renal
786-0 renal = tested on: 786-0 renal
OVCAR-5 ovarian = tested on: OVCAR-5 ovarian
HL-60(TB) leukemia = tested on: HL-60(TB) leukemia

Question: Which GI50 (SNB-75 CNS) does the source give for `[Ce+3].[Cl-].[O-]/N=C(\c1ccccc1)c1ccccn1.[O-]/N=C(\c1ccccc1)c1ccccn1.[O-]/N=C(\c1ccccc1)c1ccccn1` here?
Answer: 15.1 µM

Question: And the TGI (SNB-75 CNS)?
Answer: 66 µM

Question: What about the GI50 (UACC-62 melanoma) of the same compound?
Answer: 39.7 µM

Question: What about the TGI (UACC-62 melanoma) of the same compound?
Answer: > 100 µM

Question: And the GI50 (KM12 colon)?
Answer: 46.8 µM

Question: And the TGI (KM12 colon)?
Answer: > 100 µM

Question: What about the GI50 (HT29 colon) of the same compound?
Answer: 72 µM

Question: What about the TGI (HT29 colon) of the same compound?
Answer: > 100 µM

Question: And the GI50 (SK-OV-3 ovarian)?
Answer: 37.2 µM

Question: What about the TGI (SK-OV-3 ovarian) of the same compound?
Answer: > 100 µM

Question: What about the GI50 (KM20L2 colon) of the same compound?
Answer: > 100 µM

Question: What about the TGI (KM20L2 colon) of the same compound?
Answer: > 100 µM

Question: What about the GI50 (OVCAR-8 ovarian) of the same compound?
Answer: 37.9 µM

Question: And the TGI (OVCAR-8 ovarian)?
Answer: > 100 µM

Question: And the GI50 (NCI-H460 lung)?
Answer: 47.1 µM

Question: And the TGI (NCI-H460 lung)?
Answer: > 100 µM

Question: What about the GI50 (K-562 leukemia) of the same compound?
Answer: 36.3 µM

Question: And the TGI (K-562 leukemia)?
Answer: > 100 µM

Question: And the GI50 (ACHN renal)?
Answer: 48.9 µM

Question: What about the TGI (ACHN renal) of the same compound?
Answer: > 100 µM

Question: What about the GI50 (UACC-257 melanoma) of the same compound?
Answer: 38 µM

Question: What about the TGI (UACC-257 melanoma) of the same compound?
Answer: > 100 µM

Question: And the GI50 (COLO 205 colon)?
Answer: 33.1 µM

Question: What about the TGI (COLO 205 colon) of the same compound?
Answer: > 100 µM

Question: What about the GI50 (M19-MEL melanoma) of the same compound?
Answer: 35.8 µM

Question: What about the TGI (M19-MEL melanoma) of the same compound?
Answer: > 100 µM

Question: What about the GI50 (HCC-2998 colon) of the same compound?
Answer: 35.3 µM

Question: What about the TGI (HCC-2998 colon) of the same compound?
Answer: > 100 µM

Question: And the GI50 (CAKI-1 renal)?
Answer: 32.4 µM

Question: And the TGI (CAKI-1 renal)?
Answer: > 100 µM

Question: What about the GI50 (RPMI-8226 leukemia) of the same compound?
Answer: 59.7 µM

Question: And the TGI (RPMI-8226 leukemia)?
Answer: > 100 µM

Question: And the GI50 (SF-295 CNS)?
Answer: 37.2 µM

Question: What about the TGI (SF-295 CNS) of the same compound?
Answer: > 100 µM

Question: And the GI50 (HOP-62 NSCLC)?
Answer: 30.3 µM

Question: And the TGI (HOP-62 NSCLC)?
Answer: > 100 µM

Question: What about the GI50 (OVCAR-4 ovarian) of the same compound?
Answer: 55 µM

Question: And the TGI (OVCAR-4 ovarian)?
Answer: > 100 µM

Question: What about the GI50 (NCI-H226 lung) of the same compound?
Answer: 21.5 µM

Question: What about the TGI (NCI-H226 lung) of the same compound?
Answer: 72 µM

Question: And the GI50 (SN12C renal)?
Answer: 47.9 µM

Question: What about the TGI (SN12C renal) of the same compound?
Answer: > 100 µM

Question: What about the GI50 (U251 CNS) of the same compound?
Answer: > 100 µM

Question: What about the TGI (U251 CNS) of the same compound?
Answer: > 100 µM

Question: And the GI50 (SK-MEL-28 melanoma)?
Answer: 37.9 µM

Question: What about the TGI (SK-MEL-28 melanoma) of the same compound?
Answer: > 100 µM

Question: What about the GI50 (DMS 273 small cell lung) of the same compound?
Answer: 31.9 µM

Question: And the TGI (DMS 273 small cell lung)?
Answer: > 100 µM

Question: And the GI50 (LXFL 529 NSCLC)?
Answer: 44.4 µM

Question: What about the TGI (LXFL 529 NSCLC) of the same compound?
Answer: > 100 µM

Question: And the GI50 (NCI-H522 lung)?
Answer: 21.9 µM

Question: What about the TGI (NCI-H522 lung) of the same compound?
Answer: 73.6 µM

Question: And the GI50 (MOLT-4 leukemia)?
Answer: 27.7 µM

Question: And the TGI (MOLT-4 leukemia)?
Answer: > 100 µM

Question: What about the GI50 (UO-31 renal) of the same compound?
Answer: 28.1 µM

Question: What about the TGI (UO-31 renal) of the same compound?
Answer: 82.9 µM

Question: And the GI50 (SF-268 CNS)?
Answer: 44.4 µM

Question: What about the TGI (SF-268 CNS) of the same compound?
Answer: > 100 µM

Question: And the GI50 (EKVX NSCLC)?
Answer: 30.2 µM

Question: And the TGI (EKVX NSCLC)?
Answer: > 100 µM

Question: And the GI50 (SK-MEL-5 melanoma)?
Answer: 28.8 µM

Question: What about the TGI (SK-MEL-5 melanoma) of the same compound?
Answer: 85.8 µM

Question: And the GI50 (NCI-H23 lung)?
Answer: 59.8 µM

Question: What about the TGI (NCI-H23 lung) of the same compound?
Answer: > 100 µM

Question: What about the GI50 (TK-10 renal) of the same compound?
Answer: 51.4 µM

Question: And the TGI (TK-10 renal)?
Answer: > 100 µM

Question: What about the GI50 (OVCAR-3 ovarian) of the same compound?
Answer: 21.4 µM

Question: What about the TGI (OVCAR-3 ovarian) of the same compound?
Answer: 90.3 µM

Question: And the GI50 (MALME-3M melanoma)?
Answer: 69.8 µM

Question: And the TGI (MALME-3M melanoma)?
Answer: > 100 µM

Question: And the GI50 (HOP-92 NSCLC)?
Answer: 25.1 µM

Question: And the TGI (HOP-92 NSCLC)?
Answer: > 100 µM

Question: What about the GI50 (DMS 114 small cell lung) of the same compound?
Answer: 28.3 µM

Question: And the TGI (DMS 114 small cell lung)?
Answer: 85 µM

Question: What about the GI50 (CCRF-CEM leukemia) of the same compound?
Answer: 29.3 µM

Question: What about the TGI (CCRF-CEM leukemia) of the same compound?
Answer: > 100 µM

Question: And the GI50 (SK-MEL-2 melanoma)?
Answer: 30.9 µM

Question: What about the TGI (SK-MEL-2 melanoma) of the same compound?
Answer: 76.6 µM

Question: And the GI50 (M14 melanoma)?
Answer: 35.7 µM

Question: What about the TGI (M14 melanoma) of the same compound?
Answer: > 100 µM

Question: And the GI50 (SW-620 colon)?
Answer: 46.1 µM

Question: What about the TGI (SW-620 colon) of the same compound?
Answer: > 100 µM

Question: And the GI50 (A498 renal)?
Answer: 54 µM

Question: What about the TGI (A498 renal) of the same compound?
Answer: > 100 µM

Question: What about the GI50 (SNB-19 CNS) of the same compound?
Answer: 42.6 µM

Question: What about the TGI (SNB-19 CNS) of the same compound?
Answer: > 100 µM

Question: And the GI50 (IGROV1 ovarian)?
Answer: 39.6 µM

Question: What about the TGI (IGROV1 ovarian) of the same compound?
Answer: > 100 µM

Question: And the GI50 (HCT-116 colon)?
Answer: 33.8 µM

Question: What about the TGI (HCT-116 colon) of the same compound?
Answer: > 100 µM

Question: What about the GI50 (A549 NSCLC) of the same compound?
Answer: 42.4 µM

Question: And the TGI (A549 NSCLC)?
Answer: > 100 µM

Question: And the GI50 (DLD-1 colon)?
Answer: 40 µM

Question: What about the TGI (DLD-1 colon) of the same compound?
Answer: > 100 µM

Question: What about the GI50 (SF-539 CNS) of the same compound?
Answer: 31 µM

Question: What about the TGI (SF-539 CNS) of the same compound?
Answer: 91.9 µM

Question: And the GI50 (LOX IMVI melanoma)?
Answer: 26 µM

Question: What about the TGI (LOX IMVI melanoma) of the same compound?
Answer: 64.7 µM

Question: What about the GI50 (HCT-15 colon) of the same compound?
Answer: 38.1 µM

Question: What about the TGI (HCT-15 colon) of the same compound?
Answer: > 100 µM

Question: And the GI50 (RXF 393 renal)?
Answer: 34.4 µM

Question: What about the TGI (RXF 393 renal) of the same compound?
Answer: 96.3 µM

Question: And the GI50 (786-0 renal)?
Answer: 47 µM

Question: What about the TGI (786-0 renal) of the same compound?
Answer: > 100 µM

Question: And the GI50 (OVCAR-5 ovarian)?
Answer: > 100 µM

Question: And the TGI (OVCAR-5 ovarian)?
Answer: > 100 µM

Question: What about the GI50 (HL-60(TB) leukemia) of the same compound?
Answer: 18.7 µM

Question: What about the TGI (HL-60(TB) leukemia) of the same compound?
Answer: 60.2 µM
